According to article PMC4468608, “A distinct p53 target gene set predicts for response to the selective p53–HDM2 inhibitor NVP-CGM097” (eLife, 2015):

System: cell lines from the Cancer Cell Line Encyclopedia (CCLE)
Assay: High-throughput cell viability assay, CCLE cell line panel (n = 356)
Assay type: cell-based, human
Protocol: Cell lines were partitioned into sensitive and insensitive groups based on compound potency (IC50). […] All other cell lines were obtained from ATCC (American Type Culture Collection), DSMZ (Deutsche Sammlung von Mikroorganismen und Zellkulturen), and HSRRB (Health Science Research Resources Bank) and cultured in RPMI or Dulbecco's modified Eagle's medium plus 10% FBS (Invitrogen, Carlsbad, CA) at 37°C, 5% CO2.

COc1cc2c(cc1OC(C)C)[C@H](c1ccc(Cl)cc1)N(c1ccc(N(C)C[C@H]3CC[C@H](N4CCNC(=O)C4)CC3)cc1)C(=O)C2 [NVP-CFC218]
Amax (42-MG-BA, TP53 MUT): -30.94% | sensitivity call (42-MG-BA, TP53 MUT): insensitive (Sensitivity call for each compound was applied according to a cut-off of 4 µM for IC50 and -50% for Amax) | share of sensitive cells expressing wild-type p53 (43/47): 91.5% | share of p53 wild-type cell lines scored insensitive (57/100 p53 wild-type cell lines): 57% | number of insensitive cell lines in wider cell line compendium (634 cell lines): 557 | number of sensitive cell lines in wider cell line compendium (634 cell lines): 77 | Amax (697, TP53 WT): -96.96% | sensitivity call (697, TP53 WT): sensitive (Sensitivity call for each compound was applied according to a cut-off of 4 µM for IC50 and -50% for Amax) | Amax (8505C, TP53 MUT): -28.72% | sensitivity call (8505C, TP53 MUT): insensitive (Sensitivity call for each compound was applied according to a cut-off of 4 µM for IC50 and -50% for Amax) | Amax (AN3 CA, TP53 MUT): 5.06% | sensitivity call (AN3 CA, TP53 MUT): insensitive (Sensitivity call for each compound was applied according to a cut-off of 4 µM for IC50 and -50% for Amax) | Amax (B-CPAP, TP53 MUT): 1.71% | sensitivity call (B-CPAP, TP53 MUT): insensitive (Sensitivity call for each compound was applied according to a cut-off of 4 µM for IC50 and -50% for Amax) | Amax (BEN, TP53 MUT): 0.13% | sensitivity call (BEN, TP53 MUT): insensitive (Sensitivity call for each compound was applied according to a cut-off of 4 µM for IC50 and -50% for Amax) | Amax (BFTC-905, TP53 MUT): 0.25% | sensitivity call (BFTC-905, TP53 MUT): insensitive (Sensitivity call for each compound was applied according to a cut-off of 4 µM for IC50 and -50% for Amax) | Amax (BFTC-909, TP53 MUT): 1.37% | sensitivity call (BFTC-909, TP53 MUT): insensitive (Sensitivity call for each compound was applied according to a cut-off of 4 µM for IC50 and -50% for Amax) | Amax (BT-20, TP53 MUT): 1.40% | sensitivity call (BT-20, TP53 MUT): insensitive (Sensitivity call for each compound was applied according to a cut-off of 4 µM for IC50 and -50% for Amax) | Amax (BT-474, TP53 MUT): -3.44% | sensitivity call (BT-474, TP53 MUT): insensitive (Sensitivity call for each compound was applied according to a cut-off of 4 µM for IC50 and -50% for Amax) | Amax (CAL-12T, TP53 MUT): -18.61% | sensitivity call (CAL-12T, TP53 MUT): insensitive (Sensitivity call for each compound was applied according to a cut-off of 4 µM for IC50 and -50% for Amax) | Amax (CAL-78, TP53 MUT): -1.01% | sensitivity call (CAL-78, TP53 MUT): insensitive (Sensitivity call for each compound was applied according to a cut-off of 4 µM for IC50 and -50% for Amax) | Amax (CHL-1, TP53 MUT): -46.61% | sensitivity call (CHL-1, TP53 MUT): insensitive (Sensitivity call for each compound was applied according to a cut-off of 4 µM for IC50 and -50% for Amax) | Amax (CHP-212, TP53 WT): -71.98% | sensitivity call (CHP-212, TP53 WT): sensitive (Sensitivity call for each compound was applied according to a cut-off of 4 µM for IC50 and -50% for Amax) | Amax (COLO 205, TP53 MUT): -1.62% | sensitivity call (COLO 205, TP53 MUT): insensitive (Sensitivity call for each compound was applied according to a cut-off of 4 µM for IC50 and -50% for Amax) | Amax (COLO 792, TP53 WT): 2.74% | sensitivity call (COLO 792, TP53 WT): insensitive (Sensitivity call for each compound was applied according to a cut-off of 4 µM for IC50 and -50% for Amax) | Amax (COR-L23, TP53 WT): -1.38% | sensitivity call (COR-L23, TP53 WT): insensitive (Sensitivity call for each compound was applied according to a cut-off of 4 µM for IC50 and -50% for Amax) | Amax (Capan-1, TP53 MUT): 30.74% | sensitivity call (Capan-1, TP53 MUT): insensitive (Sensitivity call for each compound was applied according to a cut-off of 4 µM for IC50 and -50% for Amax) | Amax (ChaGo-K-1, TP53 MUT): -18.45% | sensitivity call (ChaGo-K-1, TP53 MUT): insensitive (Sensitivity call for each compound was applied according to a cut-off of 4 µM for IC50 and -50% for Amax) | Amax (DMS 53, TP53 MUT): 9.69% | sensitivity call (DMS 53, TP53 MUT): insensitive (Sensitivity call for each compound was applied according to a cut-off of 4 µM for IC50 and -50% for Amax) | Amax (DU 145, TP53 MUT): -4.91% | sensitivity call (DU 145, TP53 MUT): insensitive (Sensitivity call for each compound was applied according to a cut-off of 4 µM for IC50 and -50% for Amax) | Amax (Daoy, TP53 MUT): 2.94% | sensitivity call (Daoy, TP53 MUT): insensitive (Sensitivity call for each compound was applied according to a cut-off of 4 µM for IC50 and -50% for Amax) | Amax (EB2, TP53 MUT): -5.89% | sensitivity call (EB2, TP53 MUT): insensitive (Sensitivity call for each compound was applied according to a cut-off of 4 µM for IC50 and -50% for Amax) | Amax (EFE-184, TP53 MUT): -2.73% | sensitivity call (EFE-184, TP53 MUT): insensitive (Sensitivity call for each compound was applied according to a cut-off of 4 µM for IC50 and -50% for Amax) | Amax (EFO-21, TP53 MUT): 5.85% | sensitivity call (EFO-21, TP53 MUT): insensitive (Sensitivity call for each compound was applied according to a cut-off of 4 µM for IC50 and -50% for Amax) | Amax (FU-OV-1, TP53 MUT): -2.32% | sensitivity call (FU-OV-1, TP53 MUT): insensitive (Sensitivity call for each compound was applied according to a cut-off of 4 µM for IC50 and -50% for Amax) | Amax (FaDu, TP53 MUT): 8.93% | sensitivity call (FaDu, TP53 MUT): insensitive (Sensitivity call for each compound was applied according to a cut-off of 4 µM for IC50 and -50% for Amax) | Amax (G-401, TP53 WT): -87.03% | sensitivity call (G-401, TP53 WT): sensitive (Sensitivity call for each compound was applied according to a cut-off of 4 µM for IC50 and -50% for Amax) | Amax (GI-1, TP53 MUT): -2.97% | sensitivity call (GI-1, TP53 MUT): insensitive (Sensitivity call for each compound was applied according to a cut-off of 4 µM for IC50 and -50% for Amax) | Amax (GMS-10, TP53 MUT): -4.00% | sensitivity call (GMS-10, TP53 MUT): insensitive (Sensitivity call for each compound was applied according to a cut-off of 4 µM for IC50 and -50% for Amax) | Amax (HCC1806, TP53 MUT): 1.11% | sensitivity call (HCC1806, TP53 MUT): insensitive (Sensitivity call for each compound was applied according to a cut-off of 4 µM for IC50 and -50% for Amax) | Amax (HCC1954, TP53 MUT): -0.81% | sensitivity call (HCC1954, TP53 MUT): insensitive (Sensitivity call for each compound was applied according to a cut-off of 4 µM for IC50 and -50% for Amax) | Amax (HCC-15, TP53 MUT): -21.49% | sensitivity call (HCC-15, TP53 MUT): insensitive (Sensitivity call for each compound was applied according to a cut-off of 4 µM for IC50 and -50% for Amax) | Amax (HCT-15, TP53 MUT): -20.00% | sensitivity call (HCT-15, TP53 MUT): insensitive (Sensitivity call for each compound was applied according to a cut-off of 4 µM for IC50 and -50% for Amax) | Amax (HLF, TP53 MUT): -3.09% | sensitivity call (HLF, TP53 MUT): insensitive (Sensitivity call for each compound was applied according to a cut-off of 4 µM for IC50 and -50% for Amax) | Amax (HMC-1-8, TP53 MUT): -1.67% | sensitivity call (HMC-1-8, TP53 MUT): insensitive (Sensitivity call for each compound was applied according to a cut-off of 4 µM for IC50 and -50% for Amax) | Amax (Hep G2, TP53 WT): -62.73% | sensitivity call (Hep G2, TP53 WT): sensitive (Sensitivity call for each compound was applied according to a cut-off of 4 µM for IC50 and -50% for Amax) | IC50 (Homo sapiens, 8-MG-BA, TP53 MUT): > 8 µM | IC50 (Homo sapiens, 42-MG-BA, TP53 MUT): > 8 µM | IC50 (Homo sapiens, 697, TP53 WT): 1.59 µM | IC50 (Homo sapiens, 769-P, TP53 WT): 3.01 µM | IC50 (Homo sapiens, 786-0, 786-O, TP53 MUT): > 8 µM | IC50 (Homo sapiens, 5637, TP53 MUT): > 8 µM | IC50 (Homo sapiens, 8505C, TP53 MUT): > 8 µM
